This is an account of results in ChEMBL document CHEMBL5137011, “Semisynthetic pleuromutilin antimicrobials with therapeutic potential against methicillin-resistant Staphylococcus aureus by targeting 50S ribosomal subunit” (Eur J Med Chem, 2022).

Data set [1] can be described thus: Clearance in mouse assessed as hepatic blood flow at 10 mg/kg, iv administered as bolus infection measured upto 24 hrs by LC-MS analysis. The settings on record: in vivo. The data set is classed as ADME, organism-based.
Data set [2] concerns Staphylococcus aureus. Briefly: Antibacterial activity against methicillin-resistant Staphylococcus aureus ATCC 43300 assessed as inhibition of bacterial growth incubated for 16 hrs by CLSI based broth microdilution method. The data set is classed as functional. On the technique in general: Broth dilution looks for growth in wells or tubes with falling amounts of substance.

The subject of data set [3] is Staphylococcus aureus. As to the kind of experiment: Antibacterial activity against Staphylococcus aureus ATCC 29213 assessed as inhibition of bacterial growth incubated for 16 hrs by CLSI based broth microdilution method. The data set is classed as functional.
Data set [4] concerns Staphylococcus aureus. As to the kind of experiment: Antibacterial activity against Staphylococcus aureus AD3 assessed as inhibition of bacterial growth incubated for 16 hrs by CLSI based broth microdilution method. The data set is classed as functional.
The test system of data set [5] is Staphylococcus aureus. As to the kind of experiment: Antibacterial activity against Staphylococcus aureus 144 assessed as inhibition of bacterial growth incubated for 16 hrs by CLSI based broth microdilution method. The data set is classed as functional.
For data set [6], the system named is Staphylococcus aureus. Briefly: Antibacterial activity against Staphylococcus aureus SA17 assessed as inhibition of bacterial growth incubated for 16 hrs by CLSI based broth microdilution method. It is filed as functional.
Data set [7] deals with Staphylococcus aureus. Briefly: Antibacterial activity against methicillin-resistant Staphylococcus aureus ATCC 43300 assessed as log reduction in colony forming unit at 4 times MIC measured after 3 hrs by time kill assay. It is filed as functional.
For data set [8], the system named is Staphylococcus aureus. As to the kind of experiment: Antibacterial activity against methicillin-resistant Staphylococcus aureus ATCC 43300 assessed as log reduction in colony forming unit at 4 times MIC measured after 24 hrs by time kill assay. It is filed as functional.
Data set [9] deals with Staphylococcus aureus. As to the kind of experiment: Antibacterial activity against methicillin-resistant Staphylococcus aureus ATCC 43300 infected in ICR/Swiss mouse […] thigh infection model assessed as log reduction in bacterial load in thigh at 20 mg/kg, iv administered as bolus injection measured after 24 hrs. The data set is classed as functional.
Data set [10] deals with Staphylococcus aureus. As to the kind of experiment: Antibacterial activity against methicillin-resistant Staphylococcus aureus ATCC 43300 infected in ICR/Swiss mouse systemic infection model assessed as survival rate at 30 mg/kg, iv administered as bolus injection 1 hr post infection measured twice daily after 3 to 7 days. The settings on record: time 3-7 day. The data set is classed as functional.

Data set [11] is described as follows: MRT in mouse at 10 mg/kg, iv administered as bolus infection measured upto 24 hrs by LC-MS analysis. The conditions noted are these: in vivo. The data set is classed as ADME, organism-based.
Data set [12] is described as follows: Half life in mouse at 10 mg/kg, iv administered as bolus infection measured upto 24 hrs by LC-MS analysis. It is filed as ADME, organism-based. The conditions noted are these: in vivo.
The nature of data set [13]: Clearance in mouse at 10 mg/kg, iv administered as bolus infection measured upto 24 hrs by LC-MS analysis. The data set is classed as ADME, organism-based. The settings on record: in vivo.
The nature of data set [14]: AUC(0 to t) in mouse at 10 mg/kg, iv administered as bolus injection measured upto 24 hrs by LC-MS analysis. It is filed as ADME, organism-based. Set-up: dose 10 mg/kg, time < 24 hrs, route iv. The conditions noted are these: in vivo.
Data set [15] can be described thus: AUC(0 to infinity) in mouse at 10 mg/kg, iv administered as bolus injection measured upto 24 hrs by LC-MS analysis. The data set is classed as ADME, organism-based. Set-up: time < 24 hrs, dose 10 mg/kg, route iv. The settings on record: in vivo.
Data set [16] concerns the target Bacterial 70S ribosome (Bacteria) (UniProt P0A7V0+P60723+P0AG67+P0A7R5+P0A7R9+P0A7S3+P0A7S9+P0AG59+P0ADZ4+P0A7T3+P0AG63+P0A7T7+P0A7U3+P0A7U7+P68679+P0A7V3+P0A7V8+P0A7W1+P02358+P02359+P0A7W7+P0A7X3+P0A7J3+P0A7J7+P0AA10+P0ADY3+P02413+P0ADY7+P0AG44+P0C018+P0A7K6+P0A7L0+P0A7L3+P0AG48+P61175+P0ADZ0+P60624+P68919+P0A7L8+P0A7M2+P0A7M6+P60422+P0AG51+P0A7N1+P0A7M9+P0A7N4+P0A7N9+P0A7P5+P0A7Q1+Q2EEQ2+P0A7Q6+P60438+P62399+P0AG55+P0A7K2). Briefly: Binding affinity to Staphylococcus aureus ATCC 43300 50S ribosomal subunit assessed as association rate constant by surface plasmon resonance analysis. It is filed as subcellular.

In another data set the target is Bacterial 70S ribosome. Briefly: Binding affinity to Staphylococcus aureus ATCC 43300 50S ribosomal subunit assessed as equilibrium dissociation constant by surface plasmon resonance analysis. It is filed as subcellular.
A further data set relates to RAW264.7. As to the kind of experiment: Cytotoxicity against mouse RAW264.7 cells assessed as reduction in cell viability at 8 ug/ml incubated for 16 hrs by MTT assay. It is filed as toxicity, cell-based. The settings on record: raw264.7, 16 h, dose 8 µg/ml.
A further data set relates to 16HBE14o-. Briefly: Cytotoxicity against human 16HBE14o- cells assessed as reduction in cell viability at 8 ug/ml incubated for 16 hrs by MTT assay. The data set is classed as toxicity, cell-based. The settings on record: dose 8 µg/ml.
In data set [17] the test system is Staphylococcus aureus. Briefly: Antibacterial activity against methicillin-resistant Staphylococcus aureus ATCC 43300 infected in ICR/Swiss mouse systemic infection model assessed as survival rate at 30 mg/kg, iv administered as bolus injection 1 hr post infection measured twice daily after 2 to 7 days. The data set is classed as functional. The conditions noted are these: time 2-7 day.

In brackets after ≈: the same amount, converted by molar mass.

The term MIC denotes the lowest concentration found to suppress growth. Broadly, the MRT is a mean duration of stay, worked out from the concentration-time curve. For orientation: clearance means a measure of how efficiently the substance is removed, as volume per time. Lower therefore signals inefficient removal. A word on the AUC(0-t): it is exposure summed from dosing to a finite time, without extrapolation to infinity. A high value points to high exposure. Usually AUC(0-inf) stands for the area under the concentration-time curve extrapolated to infinity. Lower therefore signals less exposure. Usually Kd stands for the concentration at which binding is half-saturated. As for `C=C[C@]1(C)C[C@@H](OC(=O)CSc2nnc(-c3ccccc3F)[nH]2)[C@]2(C)[C@H](C)CC[C@]3(CCC(=O)[C@H]32)[C@@H](C)[C@@H]1O`, in [1], the QH was 90 mL/min/kg. Further, the MIC in the data set with Staphylococcus aureus [2] came to 0.0625 µg/mL (≈ 0.112 µM); in the data set on Staphylococcus aureus [3], 0.125 µg/mL (≈ 0.225 µM); in the data set with Staphylococcus aureus [4], 0.03 µg/mL (≈ 0.054 µM); in the data set on Staphylococcus aureus [5], 0.25 µg/mL (≈ 0.45 µM); with Staphylococcus aureus [6], 0.125 µg/mL (≈ 0.225 µM). In addition, the Activity is given as -1.66 log10CFU/ml in the data set on Staphylococcus aureus [7]; -7.7 log10CFU/ml with Staphylococcus aureus [8]; -1.53 log10CFU/ml with Staphylococcus aureus [9]; “Non-Toxic” with RAW264.7; “Non-Toxic” in the data set on 16HBE14o-. For the same compound, the survival at 30 mg/kg with Staphylococcus aureus [10] was 50%. The compound further returned an MRT in data set [11] of 93.6 min. Further, in [12], the t1/2 is 22.2 min. The clearance in [13] is 90.5 mL/min/kg. Besides, the AUC(0-t) at 24 h in data set [14] stood at 1830 ng·h/mL. The same compound yielded an AUC(0-inf) in data set [15] of 1840 ng·h/mL. For the same compound, the Ka in data set [16] was 1.04 10^3/M.s. Besides, the Kd on Bacterial 70S ribosome came to 1950 nM.
As to `C=C[C@]1(C)C[C@@H](OC(=O)CSCCN(CC)CC)[C@]2(C)[C@H](C)CC[C@]3(CCC(=O)[C@H]32)[C@@H](C)[C@@H]1O` [TIAMULIN], the MIC in the data set on Staphylococcus aureus [2] is 0.5 µg/mL (≈ 1.01 µM); in the data set on Staphylococcus aureus [3], 0.5 µg/mL (≈ 1.01 µM); with Staphylococcus aureus [4], 0.5 µg/mL (≈ 1.01 µM); with Staphylococcus aureus [5], 1 µg/mL (≈ 2.03 µM); in the data set with Staphylococcus aureus [6] it was 1 µg/mL (≈ 2.03 µM). The Activity with Staphylococcus aureus [9] was -1.1 log10CFU/ml. In the data set with Staphylococcus aureus [17], the survival at 30 mg/kg came to 30%. Moreover, the Ka in data set [16] is 1.22 10^2/Ms. Further, the Kd at Bacterial 70S ribosome stood at 36.3 nM.
